Assays:
hASIC1a = molecular target: T1, hASIC1a (Homo sapiens, UniProt P78348); assay: Whole-cell voltage clamp of pH-evoked response of human ASIC1a stably transfected in CHO cells; type: cell-based; design: expressed in transfected cells; conditions: CHO cells
T1 sequence (P78348 1-528): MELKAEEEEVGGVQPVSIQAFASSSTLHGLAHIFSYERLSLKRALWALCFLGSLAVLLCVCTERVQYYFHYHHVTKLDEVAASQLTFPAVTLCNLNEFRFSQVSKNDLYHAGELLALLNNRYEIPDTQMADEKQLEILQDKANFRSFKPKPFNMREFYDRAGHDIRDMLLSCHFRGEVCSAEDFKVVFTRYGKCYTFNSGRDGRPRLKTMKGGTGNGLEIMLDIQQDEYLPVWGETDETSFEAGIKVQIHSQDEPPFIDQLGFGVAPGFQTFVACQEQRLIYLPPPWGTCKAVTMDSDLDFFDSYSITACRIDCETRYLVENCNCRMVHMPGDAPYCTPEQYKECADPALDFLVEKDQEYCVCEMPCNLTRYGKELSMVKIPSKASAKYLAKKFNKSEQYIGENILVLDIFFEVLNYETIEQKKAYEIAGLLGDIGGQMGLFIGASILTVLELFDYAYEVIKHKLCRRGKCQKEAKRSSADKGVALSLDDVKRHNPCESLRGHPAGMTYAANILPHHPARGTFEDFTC
Protocol: FIG. 3 illustrates the inhibitory effect of Compound A on acid-evoked activation of human ASIC1a stably transfected in CHO cells. […] In this example, the size of the pH-evoked response was determined by measuring the area under the curve of the response (total charge transfer) and normalized to the control response. FIG. 3B depicts an example of an hASIC1a current (whole cell voltage clamp, −60 mV) evoked by a pH 6.8-buffered solution (from pH 7.4) in the presence or absence of Compound A (3 μM).
These endogenous proton-activated inward currents were recorded in the presence and absence of Compound J (1 μM) or Compound K (1 μM) using the whole cell configuration of the patch clamp method (voltage clamp mode).
(§1) All experiments are performed at room temperature (20-25° C.) in voltage clamp using conventional whole cell patch clamp methods (Neher, E., et al. (1978) Pfluegers Arch 375:219-228).
Coverslips with the cells are transferred to a 15 μl experimental chamber mounted on the stage of an inverted microscope (IMT-2, Olympus) supplied with Nomarski optics. Cells are continuously superfused with extracellular saline at a rate of 2.5 ml/min. After giga-seal formation, the whole cell configuration is attained by suction. The cells are held at a holding voltage of −60 mV and at the start of each experiment the current is continuously measured for 45 s to ensure a stable baseline. Solutions of low pH (<7) are delivered to the chamber through a custom-made gravity-driven flowpipe, the tip of which is placed approximately 50 μm from the cell. Application is triggered when the tubing connected to the flowpipe is compressed by a valve controlled by the Pulse-software. Initially, low pH (in general, pH 6.5) is applied for 5 s every 60 s. The sample interval during application is 5501s. After stable responses are obtained, the extracellular saline as well as the low-pH solution are switched to solutions containing the compound to be tested. The compound is present until responses of a repeatable amplitude are achieved. Current amplitudes are measured at the peak of the responses, and effect of the compounds is calculated as the amplitude at compound equilibrium divided by the amplitude of the current evoked by the pulse just before the compound was included.
The following salt solutions are used: extracellular solution (mM): NaCl (140), KCl (4), CaCl2 (2), MgCl2 (4), HEPES (10, pH 7.4); intracellular solution (mM): KCl (120), KOH (31), MgCl2 (1.785), EGTA (10), HEPES (10, pH 7.2). In general, compounds for testing are dissolved in 50% DMSO at 500 fold the highest concentration used.
Similar findings are shown in FIG. 3 with the human ASIC1a stably transfected in CHO cells. FIG. 3A compares the dose-response relationship between Compound A and amiloride [determined by measuring the area under the curve of the response (total charge transfer) and normalized to the control response]. […] FIGS. 14A and 14B show similar results for Compounds J and K.

[1] = Plasma level after administration in the formalin experiments; type: in vivo; conditions: plasma level 1.5 h after compound administration, i.p., rat
heteromeric hASIC1a+3 = molecular target: T2, heteromeric hASIC1a+3 (Homo sapiens, UniProt P78348+Q9UHC3); assay: Whole-cell patch clamp of HEK293 cells co-expressing hASIC1a and hASIC3; type: cell-based; design: expressed in transfected cells; host or cells: HEK293; conditions: 10 μM, HEK293, -60 mV, pH 7.4 to pH 6.5 for 5 sec, n=3
T2 sequence (P78348 1-528): T1 sequence (P78348 1-528)
T2 sequence (Q9UHC3 1-531): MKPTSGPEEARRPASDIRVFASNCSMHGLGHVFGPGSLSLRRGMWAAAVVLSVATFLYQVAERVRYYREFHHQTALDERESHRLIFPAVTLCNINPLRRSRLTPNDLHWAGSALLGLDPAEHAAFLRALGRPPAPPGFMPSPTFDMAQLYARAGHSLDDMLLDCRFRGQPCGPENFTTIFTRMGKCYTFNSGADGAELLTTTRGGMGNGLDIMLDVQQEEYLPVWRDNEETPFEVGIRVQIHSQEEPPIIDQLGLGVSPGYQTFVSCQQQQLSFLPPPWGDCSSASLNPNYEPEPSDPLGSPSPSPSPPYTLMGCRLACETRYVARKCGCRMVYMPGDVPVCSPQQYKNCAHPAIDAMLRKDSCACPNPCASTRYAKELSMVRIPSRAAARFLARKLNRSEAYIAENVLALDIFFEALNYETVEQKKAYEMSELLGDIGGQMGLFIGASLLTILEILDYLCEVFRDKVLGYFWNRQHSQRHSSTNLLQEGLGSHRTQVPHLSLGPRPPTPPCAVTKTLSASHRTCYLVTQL
Protocol: HEK293 cells were transfected either with hASIC1a alone or co-transfected with hASIC1a and hASIC3. Acid-induced inward currents were recorded in the presence and absence of compound A (10 μM) using the whole-cell configuration of the patch-clamp method (voltage clamp mode).
as §1
Coverslips with the cells are transferred to a 15 μl experimental chamber mounted on the stage of an inverted microscope (IMT-2, Olympus) supplied with Nomarski optics. […] The cells are held at a holding voltage of −60 mV and at the start of each experiment the current is continuously measured for 45 s to ensure a stable baseline. […] Current amplitudes are measured at the peak of the responses, and effect of the compounds is calculated as the amplitude at compound equilibrium divided by the amplitude of the current evoked by the pulse just before the compound was included. […]
FIGS. 4A and 4B show response to acidic saline in the absence or presence of 10 μM of Compound A recorded from HEK293 cells expressing either hASIC1a alone or HEK293 cells co-expressing hASIC1a and hASIC3 [voltage clamped at −60 mV, extracellular solution surrounding cells was changed rapidly from pH 7.4 to pH 6.5 for 5 sec] […]

COc1ccc(F)cc1-c1cc2c(c3c1CCN(C)C3)NC(=O)/C2=N/O [Compound A, 5-(5-fluoro-2-methoxyphenyl)-6,7,8,9-tetrahydro-3-(hydroxyimino)-8-methyl-1H-pyrrolo[3,2-h]isoquinoline-2(3H)-one]
effect on size of human ASIC1a pH-evoked response (area under the curve, total charge transfer, normalized to control) (hASIC1a; -60 mV, pH 6.8 from pH 7.4): reduce the human ASIC1a pH-evoked response in a dose-dependent manner
potency relative to amiloride (hASIC1a; human ASIC1a pH-evoked response): about 100 fold
relationship between dose and plasma level [1]: linear relationship between dose and plasma exposure
effect on acid-induced inward current, hASIC1a and hASIC3 co-expressed (heteromeric hASIC1a+3): effectively modulates the activity

— patent US7718641B2, “Pyrrolo [3,4-H] isoquinoline compounds and methods for modulating gated ion channels” (Aros Pharma ApS, priority 2005, dated 2010)
